Laboratory results reported in article PMC8550792, “Evolution of kinase polypharmacology across HSP90 drug discovery” (Cell Chemical Biology, 2021).

Columns and labels:
Test in all cases: biochemical
Assay type in all cases: biochemical
382 unique human kinases [1] = biological target: T1, 382 unique human kinases (Homo sapiens, UniProt P21802, K659N); details: FGFR2 (K659N), 10 uM; for remaining activity at 10 µM: read-out: % Enzyme Activity (relative to DMSO controls)
T1 construct: purchased Reaction Biology (HotSpot contract assay)
T1 sequence (P21802 22-821 K659N): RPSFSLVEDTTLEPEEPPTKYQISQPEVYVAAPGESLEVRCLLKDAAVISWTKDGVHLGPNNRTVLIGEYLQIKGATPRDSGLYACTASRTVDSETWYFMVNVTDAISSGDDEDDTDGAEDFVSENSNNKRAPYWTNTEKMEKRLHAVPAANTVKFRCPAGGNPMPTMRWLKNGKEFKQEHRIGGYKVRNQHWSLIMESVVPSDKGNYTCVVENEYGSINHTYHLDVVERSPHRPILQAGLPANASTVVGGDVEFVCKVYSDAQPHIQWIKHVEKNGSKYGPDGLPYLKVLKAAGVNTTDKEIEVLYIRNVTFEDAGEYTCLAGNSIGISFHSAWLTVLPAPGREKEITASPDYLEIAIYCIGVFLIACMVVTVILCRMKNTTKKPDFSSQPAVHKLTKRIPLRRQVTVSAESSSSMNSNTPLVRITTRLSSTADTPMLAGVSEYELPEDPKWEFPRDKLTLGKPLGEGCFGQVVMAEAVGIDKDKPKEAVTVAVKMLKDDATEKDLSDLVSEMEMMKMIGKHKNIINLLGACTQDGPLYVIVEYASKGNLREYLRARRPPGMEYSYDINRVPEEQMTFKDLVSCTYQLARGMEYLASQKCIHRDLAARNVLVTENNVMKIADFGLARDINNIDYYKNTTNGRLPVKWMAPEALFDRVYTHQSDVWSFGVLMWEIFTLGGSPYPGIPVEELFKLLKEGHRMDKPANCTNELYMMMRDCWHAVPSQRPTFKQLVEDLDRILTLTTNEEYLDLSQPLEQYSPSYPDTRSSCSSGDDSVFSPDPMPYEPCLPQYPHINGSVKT

382 unique human kinases [2] = biological target: T2, 382 unique human kinases (Homo sapiens, UniProt P22607, K650Q); details: kinase FGFR3 (K650Q), compound 10 uM; for remaining activity at 10 µM: read-out: % Enzyme Activity (relative to DMSO controls)
T2 construct: purchased Reaction Biology (HotSpot contract assay)
T2 sequence (P22607 23-806 K650Q): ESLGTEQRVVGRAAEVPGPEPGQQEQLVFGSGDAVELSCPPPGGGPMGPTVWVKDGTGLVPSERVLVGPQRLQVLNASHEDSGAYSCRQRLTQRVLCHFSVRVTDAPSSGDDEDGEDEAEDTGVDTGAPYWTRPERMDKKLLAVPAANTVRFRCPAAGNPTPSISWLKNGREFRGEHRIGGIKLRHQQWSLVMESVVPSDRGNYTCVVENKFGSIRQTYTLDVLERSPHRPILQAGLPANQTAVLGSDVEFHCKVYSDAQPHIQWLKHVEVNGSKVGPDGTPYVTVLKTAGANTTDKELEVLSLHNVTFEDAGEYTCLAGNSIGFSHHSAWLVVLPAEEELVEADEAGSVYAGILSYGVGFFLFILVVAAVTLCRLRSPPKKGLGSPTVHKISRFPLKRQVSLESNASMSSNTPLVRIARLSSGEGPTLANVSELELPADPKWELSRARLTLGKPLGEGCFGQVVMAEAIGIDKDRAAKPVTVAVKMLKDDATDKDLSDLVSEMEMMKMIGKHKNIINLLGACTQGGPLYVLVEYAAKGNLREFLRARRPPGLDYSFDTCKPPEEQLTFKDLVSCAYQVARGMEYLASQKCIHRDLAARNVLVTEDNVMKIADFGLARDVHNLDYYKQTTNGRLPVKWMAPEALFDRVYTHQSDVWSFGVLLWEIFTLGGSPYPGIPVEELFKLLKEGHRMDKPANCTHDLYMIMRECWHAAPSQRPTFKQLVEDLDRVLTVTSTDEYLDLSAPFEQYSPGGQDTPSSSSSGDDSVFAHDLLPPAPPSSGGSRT

382 unique human kinases [3] = biological target: T3, 382 unique human kinases (Homo sapiens, UniProt Q15831); details: LKB1, compound at 10 uM, duplicate values; for remaining activity at 10 µM: read-out: % Enzyme Activity (relative to DMSO controls)
T3 construct: purchased Reaction Biology (HotSpot contract assay)
T3 sequence (Q15831 1-433): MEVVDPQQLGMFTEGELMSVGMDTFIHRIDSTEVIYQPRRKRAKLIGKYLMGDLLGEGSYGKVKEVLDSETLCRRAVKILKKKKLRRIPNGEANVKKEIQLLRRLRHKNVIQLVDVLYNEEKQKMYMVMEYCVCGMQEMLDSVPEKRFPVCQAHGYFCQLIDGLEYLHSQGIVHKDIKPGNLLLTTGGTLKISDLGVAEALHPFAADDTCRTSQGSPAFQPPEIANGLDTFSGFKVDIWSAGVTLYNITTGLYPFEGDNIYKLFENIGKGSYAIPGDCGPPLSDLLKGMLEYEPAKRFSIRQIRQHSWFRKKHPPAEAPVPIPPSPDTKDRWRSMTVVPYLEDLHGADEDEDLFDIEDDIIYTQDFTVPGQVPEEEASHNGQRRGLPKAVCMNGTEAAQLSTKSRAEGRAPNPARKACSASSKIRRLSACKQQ

382 unique human kinases [4] = biological target: T4, 382 unique human kinases (Homo sapiens, UniProt P43250); details: GRK6, 10 uM; for remaining activity at 10 µM: read-out: % Enzyme Activity (relative to DMSO controls)
T4 construct: purchased Reaction Biology (HotSpot contract assay)
T4 sequence (P43250 whole entry): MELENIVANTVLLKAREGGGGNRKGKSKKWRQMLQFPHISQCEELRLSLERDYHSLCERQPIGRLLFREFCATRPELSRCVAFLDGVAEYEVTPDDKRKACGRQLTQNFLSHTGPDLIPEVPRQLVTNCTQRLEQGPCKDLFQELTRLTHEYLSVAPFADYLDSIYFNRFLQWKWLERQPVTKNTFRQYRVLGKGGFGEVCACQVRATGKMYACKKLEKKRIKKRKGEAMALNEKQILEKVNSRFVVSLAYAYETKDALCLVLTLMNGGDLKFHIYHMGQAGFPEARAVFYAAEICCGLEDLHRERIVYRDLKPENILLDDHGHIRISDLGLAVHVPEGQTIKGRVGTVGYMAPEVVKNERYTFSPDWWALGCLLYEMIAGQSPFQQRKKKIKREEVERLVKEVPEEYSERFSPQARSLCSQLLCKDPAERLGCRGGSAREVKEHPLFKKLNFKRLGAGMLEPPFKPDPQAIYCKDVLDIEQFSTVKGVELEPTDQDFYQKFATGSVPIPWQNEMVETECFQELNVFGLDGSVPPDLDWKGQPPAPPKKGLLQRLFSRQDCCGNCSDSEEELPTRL

382 unique human kinases [5] = biological target: T5, 382 unique human kinases (Homo sapiens, UniProt Q9BZL6, G870E); details: PKD2 (G870E), [ATP] 30 µM, compound 10 uM; for remaining activity at 10 µM: read-out: % Enzyme Activity (relative to DMSO controls)
T5 construct: purchased Reaction Biology (HotSpot contract assay)
T5 sequence (Q9BZL6 1-878 G870E): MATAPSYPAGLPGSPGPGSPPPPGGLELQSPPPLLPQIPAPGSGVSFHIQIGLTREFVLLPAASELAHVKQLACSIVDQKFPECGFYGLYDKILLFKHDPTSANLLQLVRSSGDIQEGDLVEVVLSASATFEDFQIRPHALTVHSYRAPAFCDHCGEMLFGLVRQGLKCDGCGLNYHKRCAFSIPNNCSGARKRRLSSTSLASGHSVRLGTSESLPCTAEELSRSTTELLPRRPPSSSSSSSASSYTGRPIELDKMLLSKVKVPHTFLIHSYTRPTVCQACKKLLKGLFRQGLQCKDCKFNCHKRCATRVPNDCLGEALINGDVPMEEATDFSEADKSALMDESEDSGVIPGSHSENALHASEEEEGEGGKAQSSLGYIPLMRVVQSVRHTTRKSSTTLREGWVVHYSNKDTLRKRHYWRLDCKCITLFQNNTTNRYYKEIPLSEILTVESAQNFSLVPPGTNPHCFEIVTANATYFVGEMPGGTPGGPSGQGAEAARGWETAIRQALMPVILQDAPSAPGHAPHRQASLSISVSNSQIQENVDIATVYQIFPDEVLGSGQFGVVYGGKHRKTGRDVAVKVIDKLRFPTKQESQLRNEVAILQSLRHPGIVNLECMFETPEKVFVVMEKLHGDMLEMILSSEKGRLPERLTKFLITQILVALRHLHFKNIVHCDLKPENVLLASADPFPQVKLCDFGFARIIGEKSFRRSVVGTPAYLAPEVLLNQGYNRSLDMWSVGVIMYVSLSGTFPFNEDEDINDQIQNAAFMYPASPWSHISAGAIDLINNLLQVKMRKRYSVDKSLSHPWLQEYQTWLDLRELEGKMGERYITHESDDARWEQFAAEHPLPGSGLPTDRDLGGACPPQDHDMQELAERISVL

382 unique human kinases [6] = biological target: T6, 382 unique human kinases (Homo sapiens, UniProt Q9UL54); details: TAOK2/TAO1, [ATP] 30 µM, compound 10 uM; for remaining activity at 10 µM: read-out: % Enzyme Activity (relative to DMSO controls)
T6 construct: purchased Reaction Biology (HotSpot contract assay)
T6 sequence (Q9UL54 1-1235): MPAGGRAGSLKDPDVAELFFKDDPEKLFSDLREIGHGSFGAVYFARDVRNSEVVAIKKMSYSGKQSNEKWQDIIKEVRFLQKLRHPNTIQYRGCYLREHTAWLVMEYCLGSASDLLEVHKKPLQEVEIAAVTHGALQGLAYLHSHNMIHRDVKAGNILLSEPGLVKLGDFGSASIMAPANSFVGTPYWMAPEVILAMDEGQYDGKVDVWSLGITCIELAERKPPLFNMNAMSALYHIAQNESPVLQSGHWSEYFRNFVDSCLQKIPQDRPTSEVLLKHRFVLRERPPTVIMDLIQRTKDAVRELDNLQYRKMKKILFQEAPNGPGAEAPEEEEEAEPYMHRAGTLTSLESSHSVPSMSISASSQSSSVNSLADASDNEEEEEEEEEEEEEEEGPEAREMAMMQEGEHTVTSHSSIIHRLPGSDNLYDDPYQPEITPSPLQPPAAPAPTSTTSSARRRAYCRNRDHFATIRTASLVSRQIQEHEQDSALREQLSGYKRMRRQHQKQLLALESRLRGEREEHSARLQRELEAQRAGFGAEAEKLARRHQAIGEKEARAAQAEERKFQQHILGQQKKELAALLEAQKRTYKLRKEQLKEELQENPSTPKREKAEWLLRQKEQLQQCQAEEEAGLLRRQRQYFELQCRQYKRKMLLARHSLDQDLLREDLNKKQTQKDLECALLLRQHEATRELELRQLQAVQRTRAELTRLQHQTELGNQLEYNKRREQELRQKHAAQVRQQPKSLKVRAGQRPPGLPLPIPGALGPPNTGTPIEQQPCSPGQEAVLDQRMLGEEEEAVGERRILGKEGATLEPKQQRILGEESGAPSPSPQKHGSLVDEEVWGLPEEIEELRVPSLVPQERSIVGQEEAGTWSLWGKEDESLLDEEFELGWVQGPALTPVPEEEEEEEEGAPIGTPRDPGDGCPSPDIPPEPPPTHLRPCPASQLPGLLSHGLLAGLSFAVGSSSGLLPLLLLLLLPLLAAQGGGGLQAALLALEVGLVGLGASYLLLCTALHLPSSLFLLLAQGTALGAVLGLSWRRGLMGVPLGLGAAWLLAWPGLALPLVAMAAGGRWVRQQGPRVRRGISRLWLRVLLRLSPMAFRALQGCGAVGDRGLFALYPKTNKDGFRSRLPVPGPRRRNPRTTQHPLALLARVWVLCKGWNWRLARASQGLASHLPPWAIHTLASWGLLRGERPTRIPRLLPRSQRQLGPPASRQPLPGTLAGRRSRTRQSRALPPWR

382 unique human kinases [7] = biological target: T7, 382 unique human kinases (Homo sapiens, UniProt Q9UM73, G1269A); details: ALK (G1269A), [ATP] 2.5 µM, compound 10 uM; for remaining activity at 10 µM: read-out: % Enzyme Activity (relative to DMSO controls)
T7 construct: purchased Reaction Biology (HotSpot contract assay)
T7 sequence (Q9UM73 19-1620 G1269A): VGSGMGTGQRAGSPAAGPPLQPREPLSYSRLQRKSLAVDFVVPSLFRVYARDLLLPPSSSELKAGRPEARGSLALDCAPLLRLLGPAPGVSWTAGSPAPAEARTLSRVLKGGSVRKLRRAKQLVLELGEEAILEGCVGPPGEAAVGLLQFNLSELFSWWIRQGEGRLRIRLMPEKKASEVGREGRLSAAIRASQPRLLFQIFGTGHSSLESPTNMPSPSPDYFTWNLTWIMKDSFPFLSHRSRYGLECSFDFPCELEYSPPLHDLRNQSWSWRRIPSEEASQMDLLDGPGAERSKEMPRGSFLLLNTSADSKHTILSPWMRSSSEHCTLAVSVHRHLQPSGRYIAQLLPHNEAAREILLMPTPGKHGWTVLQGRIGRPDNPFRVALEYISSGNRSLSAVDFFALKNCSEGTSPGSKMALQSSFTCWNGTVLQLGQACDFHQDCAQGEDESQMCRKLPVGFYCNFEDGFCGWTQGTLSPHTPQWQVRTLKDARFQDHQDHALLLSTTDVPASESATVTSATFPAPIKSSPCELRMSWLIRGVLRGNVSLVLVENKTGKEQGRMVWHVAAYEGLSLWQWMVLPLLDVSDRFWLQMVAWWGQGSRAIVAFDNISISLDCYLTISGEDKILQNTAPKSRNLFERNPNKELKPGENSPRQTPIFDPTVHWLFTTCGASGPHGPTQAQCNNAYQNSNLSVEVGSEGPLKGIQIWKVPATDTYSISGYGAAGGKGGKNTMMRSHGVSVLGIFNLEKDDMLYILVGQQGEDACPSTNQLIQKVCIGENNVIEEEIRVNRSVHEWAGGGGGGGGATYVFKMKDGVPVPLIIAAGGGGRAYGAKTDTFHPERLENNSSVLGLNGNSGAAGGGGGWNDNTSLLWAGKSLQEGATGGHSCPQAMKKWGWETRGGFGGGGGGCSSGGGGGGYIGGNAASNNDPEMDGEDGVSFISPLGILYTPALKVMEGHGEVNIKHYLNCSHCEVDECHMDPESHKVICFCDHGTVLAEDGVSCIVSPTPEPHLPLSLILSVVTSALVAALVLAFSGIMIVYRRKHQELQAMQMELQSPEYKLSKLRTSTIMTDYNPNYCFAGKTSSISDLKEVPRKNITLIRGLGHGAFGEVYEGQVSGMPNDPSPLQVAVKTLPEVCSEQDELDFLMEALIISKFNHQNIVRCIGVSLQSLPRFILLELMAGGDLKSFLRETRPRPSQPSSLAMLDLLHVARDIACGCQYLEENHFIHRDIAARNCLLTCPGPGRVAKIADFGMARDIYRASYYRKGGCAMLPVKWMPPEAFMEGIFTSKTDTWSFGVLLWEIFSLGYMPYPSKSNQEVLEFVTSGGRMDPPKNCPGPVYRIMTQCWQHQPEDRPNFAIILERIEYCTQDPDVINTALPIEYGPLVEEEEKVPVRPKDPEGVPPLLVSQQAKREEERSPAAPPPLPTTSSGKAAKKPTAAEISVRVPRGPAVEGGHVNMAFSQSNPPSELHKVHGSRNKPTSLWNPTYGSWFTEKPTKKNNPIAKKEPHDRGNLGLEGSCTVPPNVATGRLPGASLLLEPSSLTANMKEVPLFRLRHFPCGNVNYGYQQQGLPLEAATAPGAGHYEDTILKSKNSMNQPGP

| SMILES | remaining activity at 10 µM (382 unique human kinases [1]) | remaining activity at 10 µM (382 unique human kinases [2]) | remaining activity at 10 µM (382 unique human kinases [3]) | remaining activity at 10 µM (382 unique human kinases [4]) | remaining activity at 10 µM (382 unique human kinases [5]) | remaining activity at 10 µM (382 unique human kinases [6]) | remaining activity at 10 µM (382 unique human kinases [7]) | % Enzyme Activity (relative to DMSO controls) (382 unique human kinases [1]) | % Enzyme Activity (relative to DMSO controls) (382 unique human kinases [2]) | % Enzyme Activity (relative to DMSO controls) (382 unique human kinases [3]) | % Enzyme Activity (relative to DMSO controls) (382 unique human kinases [4]) | % Enzyme Activity (relative to DMSO controls) (382 unique human kinases [5]) | % Enzyme Activity (relative to DMSO controls) (382 unique human kinases [6]) | % Enzyme Activity (relative to DMSO controls) (382 unique human kinases [7]) |
| --- | --- | --- | --- | --- | --- | --- | --- | --- | --- | --- | --- | --- | --- | --- |
| CC(C)c1cc(-c2n[nH]c(=O)n2-c2ccc3c(ccn3C)c2)c(O)cc1O [Ganetespib (STA9090)] | 70.6% | 84.5% | 110% |  |  |  |  |  |  |  |  |  |  |  |
| CC(C)c1cc(-c2n[nH]c(=O)n2-c2ccc3c(ccn3C)c2)c(O)cc1O [Ganetespib] |  |  |  | 97.2% | 59.7% | 58.9% | 55.7% |  |  |  |  |  |  |  |
| CCNC(=O)c1noc(-c2cc(C(C)C)c(O)cc2O)c1-c1ccc(CN2CCOCC2)cc1 [Luminespib (AUY-922)] | 102% | 107% | 106% |  |  |  |  | 101.12% | 105.48% | 103.13% |  |  |  |  |
| CCNC(=O)c1noc(-c2cc(C(C)C)c(O)cc2O)c1-c1ccc(CN2CCOCC2)cc1 [Luminespib] |  |  |  | 97.2% | 104% | 96% | 90.3% |  |  |  | 96.43% | 103.84% | 95.89% | 90.09% |
